In ChEMBL document CHEMBL1140825, “Cy3-3-acylcholine: a fluorescent analogue of acetylcholine for single molecule detection” (Bioorg Med Chem Lett, 2008):
Calls of active or inactive are those of the source. The rule behind the calls is not given here.

What was measured:
[1] = target: Neuronal acetylcholine receptor subunit alpha-4 (Gallus gallus) (UniProt P09482); assay: Agonist activity at chicken nACh receptor alpha4beta2 expressed in Xenopus laevis oocytes assessed as time taken for current to decay from its peak to 50% at 100 nM by two-electrode voltage clamp assay; assay type: functional, cell-based; details: Oocyte
Sequence of Neuronal acetylcholine receptor subunit alpha-4 (Gallus gallus) (P09482 whole entry): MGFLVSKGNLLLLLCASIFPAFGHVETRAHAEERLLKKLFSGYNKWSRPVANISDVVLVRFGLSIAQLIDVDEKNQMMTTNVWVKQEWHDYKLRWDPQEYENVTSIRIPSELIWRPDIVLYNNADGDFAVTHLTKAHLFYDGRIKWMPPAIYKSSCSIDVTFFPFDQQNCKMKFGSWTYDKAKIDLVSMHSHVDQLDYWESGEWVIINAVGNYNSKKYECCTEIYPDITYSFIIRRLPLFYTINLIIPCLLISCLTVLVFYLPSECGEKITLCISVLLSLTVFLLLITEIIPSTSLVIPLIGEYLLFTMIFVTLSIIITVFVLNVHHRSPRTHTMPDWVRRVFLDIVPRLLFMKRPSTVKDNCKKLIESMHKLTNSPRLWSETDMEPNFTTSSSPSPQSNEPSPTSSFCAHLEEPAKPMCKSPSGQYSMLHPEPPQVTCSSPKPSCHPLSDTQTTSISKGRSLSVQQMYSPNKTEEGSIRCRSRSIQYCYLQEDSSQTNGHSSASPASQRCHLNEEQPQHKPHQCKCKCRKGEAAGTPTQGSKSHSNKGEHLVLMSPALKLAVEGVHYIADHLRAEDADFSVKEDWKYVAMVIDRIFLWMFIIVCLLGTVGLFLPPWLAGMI

Tetronarce californica [2] = assay: Displacement of non fluorescent acetylcholine from torpedo californica nACh receptor
Tetronarce californica [3] = assay: Binding affinity to Torpedo californica nACh receptor in reconstituted diphytanoylphosphatidylcholine/cholesterol vesicles

T1/2 [1]: 25 s
Activity (Tetronarce californica [2]): Active
Activity (Tetronarce californica [3]): Active
Compound: CCN1/C(=C/C=C/C2=[N+](CCCCCC(=O)NCCCC(=O)OCC[N+](C)(C)C)c3ccc(S(=O)(=O)[O-])cc3C2(C)C)C(C)(C)c2cc(S(=O)(=O)[O-])ccc21
